Test results: patent publication US20150307520A1, “NOVEL HETEROARYL AND HETEROCYCLE COMPOUNDS, COMPOSITIONS AND METHODS THEREOF” (HUTCHISON MEDIPHARMA LIMITED, priority 2012, published 2015)

Key:
Assay type in all cases: biochemical
p110β/p85α = p110β/p85α (Homo sapiens, UniProt P42338); experiment: Transcreener KINASE Assay, kinase inhibition of p110β/p85α; details: for PI3Kβ IH % @ 1 uM: 1 uM test compound; for IC50: read-out: PI3Kβ IC50
Procedure, shortened: (§1)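 Steps: compound (2% DMSO final) plus enzyme in HEPES/NaCl/EGTA/CHAPS/3 mM MgCl2/1 mM DTT buffer; start with PIP2/ATP addition (30 uM/10 uM solution); 80 min RT; add ADP detection mix, 60 min RT; read fluorescence polarization.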

p110δ/p85α = p110δ/p85α (Homo sapiens, UniProt O00329); experiment: Transcreener KINASE Assay, kinase inhibition of p110δ/p85α; details: for PI3Kδ IH % @ 1 uM: 1 uM test compound; for IC50: read-out: PI3Kδ IC50
Chain of p110δ/p85α (O00329 whole entry): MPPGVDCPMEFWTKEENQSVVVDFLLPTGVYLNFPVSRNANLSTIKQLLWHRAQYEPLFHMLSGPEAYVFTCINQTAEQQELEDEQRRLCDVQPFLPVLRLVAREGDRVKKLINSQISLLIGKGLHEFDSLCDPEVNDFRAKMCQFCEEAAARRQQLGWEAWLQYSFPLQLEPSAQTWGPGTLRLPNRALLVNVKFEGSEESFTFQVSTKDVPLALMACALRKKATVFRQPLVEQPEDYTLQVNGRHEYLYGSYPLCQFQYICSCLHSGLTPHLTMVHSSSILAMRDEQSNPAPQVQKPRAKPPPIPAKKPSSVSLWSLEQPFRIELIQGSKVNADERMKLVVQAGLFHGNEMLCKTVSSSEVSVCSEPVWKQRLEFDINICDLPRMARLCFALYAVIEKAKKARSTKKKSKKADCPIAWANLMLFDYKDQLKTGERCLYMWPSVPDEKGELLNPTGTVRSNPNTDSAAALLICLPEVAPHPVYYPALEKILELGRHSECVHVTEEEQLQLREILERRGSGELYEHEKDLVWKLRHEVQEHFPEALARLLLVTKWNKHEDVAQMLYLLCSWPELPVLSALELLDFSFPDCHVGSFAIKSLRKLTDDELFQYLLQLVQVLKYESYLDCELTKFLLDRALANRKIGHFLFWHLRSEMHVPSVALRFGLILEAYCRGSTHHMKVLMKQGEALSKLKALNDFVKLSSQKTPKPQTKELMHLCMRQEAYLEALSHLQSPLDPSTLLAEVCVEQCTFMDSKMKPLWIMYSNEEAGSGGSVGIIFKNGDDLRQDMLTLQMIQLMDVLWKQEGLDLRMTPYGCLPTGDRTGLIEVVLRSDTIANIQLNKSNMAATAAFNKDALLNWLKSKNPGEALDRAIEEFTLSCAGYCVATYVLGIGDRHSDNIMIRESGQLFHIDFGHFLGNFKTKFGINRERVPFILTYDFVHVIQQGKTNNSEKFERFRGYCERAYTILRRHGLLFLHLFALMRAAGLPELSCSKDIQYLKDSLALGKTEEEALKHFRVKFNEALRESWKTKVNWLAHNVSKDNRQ
Chain of p110δ/p85α (P27986 whole entry partner): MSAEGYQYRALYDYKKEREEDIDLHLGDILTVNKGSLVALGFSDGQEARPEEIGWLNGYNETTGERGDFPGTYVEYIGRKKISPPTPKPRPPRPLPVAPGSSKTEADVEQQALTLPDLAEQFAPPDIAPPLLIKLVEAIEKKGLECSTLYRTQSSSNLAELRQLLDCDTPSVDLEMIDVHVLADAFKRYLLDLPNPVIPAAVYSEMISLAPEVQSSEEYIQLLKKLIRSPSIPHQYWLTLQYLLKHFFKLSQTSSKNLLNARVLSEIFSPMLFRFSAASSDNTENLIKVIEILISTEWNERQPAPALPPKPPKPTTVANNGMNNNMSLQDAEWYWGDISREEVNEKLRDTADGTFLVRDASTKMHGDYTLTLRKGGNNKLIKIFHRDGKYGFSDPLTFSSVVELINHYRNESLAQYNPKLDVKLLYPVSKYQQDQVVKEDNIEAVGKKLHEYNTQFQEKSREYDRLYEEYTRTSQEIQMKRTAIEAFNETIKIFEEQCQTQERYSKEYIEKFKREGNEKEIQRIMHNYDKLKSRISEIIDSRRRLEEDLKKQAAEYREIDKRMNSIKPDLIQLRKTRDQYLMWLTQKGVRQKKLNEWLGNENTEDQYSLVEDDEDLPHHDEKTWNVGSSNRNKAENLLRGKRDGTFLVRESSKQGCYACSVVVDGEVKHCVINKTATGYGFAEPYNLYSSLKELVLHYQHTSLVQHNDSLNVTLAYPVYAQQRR
Procedure, shortened: as §1

p110γ = p110γ (Homo sapiens, UniProt P48736); experiment: Transcreener KINASE Assay, kinase inhibition of p110γ; details: for PI3Kγ IH % @ 1 uM: 1 uM test compound; for IC50: read-out: PI3Kγ IC50
Chain of p110γ (P48736 whole entry): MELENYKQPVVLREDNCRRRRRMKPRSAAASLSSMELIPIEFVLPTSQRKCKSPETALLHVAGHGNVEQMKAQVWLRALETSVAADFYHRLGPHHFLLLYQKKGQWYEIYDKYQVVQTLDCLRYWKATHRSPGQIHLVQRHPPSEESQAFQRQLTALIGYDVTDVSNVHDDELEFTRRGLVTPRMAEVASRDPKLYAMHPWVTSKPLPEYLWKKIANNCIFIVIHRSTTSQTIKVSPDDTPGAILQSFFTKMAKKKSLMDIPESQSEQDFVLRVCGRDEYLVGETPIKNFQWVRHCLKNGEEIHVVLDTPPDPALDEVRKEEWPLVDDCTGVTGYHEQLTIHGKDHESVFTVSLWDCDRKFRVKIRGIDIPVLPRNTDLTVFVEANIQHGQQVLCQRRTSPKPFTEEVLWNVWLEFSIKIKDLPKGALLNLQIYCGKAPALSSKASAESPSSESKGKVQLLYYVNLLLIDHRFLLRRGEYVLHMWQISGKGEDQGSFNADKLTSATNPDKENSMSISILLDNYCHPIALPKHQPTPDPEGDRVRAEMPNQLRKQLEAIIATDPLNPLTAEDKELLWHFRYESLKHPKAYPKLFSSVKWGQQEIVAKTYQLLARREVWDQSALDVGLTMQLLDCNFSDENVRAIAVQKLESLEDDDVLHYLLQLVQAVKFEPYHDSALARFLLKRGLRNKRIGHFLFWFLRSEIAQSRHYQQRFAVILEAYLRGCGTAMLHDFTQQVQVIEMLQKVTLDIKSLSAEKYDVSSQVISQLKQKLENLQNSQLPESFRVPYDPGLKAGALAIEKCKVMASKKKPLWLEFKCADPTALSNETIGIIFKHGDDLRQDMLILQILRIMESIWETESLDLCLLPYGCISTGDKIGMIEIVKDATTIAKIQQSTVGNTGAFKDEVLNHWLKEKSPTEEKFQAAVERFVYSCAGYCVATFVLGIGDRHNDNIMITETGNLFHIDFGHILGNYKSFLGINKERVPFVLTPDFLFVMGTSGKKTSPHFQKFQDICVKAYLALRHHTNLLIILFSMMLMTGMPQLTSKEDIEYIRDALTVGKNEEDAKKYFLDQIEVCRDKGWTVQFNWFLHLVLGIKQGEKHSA
Procedure, shortened: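 Steps: enzyme reaction with compound, 80 min at room temperature; add ADP detection reagent, incubate 60 min at room temperature; read fluorescence polarization. Inhibition and IC50 values are derived from the ADP signal.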

Chain of p110β/p85α (P42338 whole entry): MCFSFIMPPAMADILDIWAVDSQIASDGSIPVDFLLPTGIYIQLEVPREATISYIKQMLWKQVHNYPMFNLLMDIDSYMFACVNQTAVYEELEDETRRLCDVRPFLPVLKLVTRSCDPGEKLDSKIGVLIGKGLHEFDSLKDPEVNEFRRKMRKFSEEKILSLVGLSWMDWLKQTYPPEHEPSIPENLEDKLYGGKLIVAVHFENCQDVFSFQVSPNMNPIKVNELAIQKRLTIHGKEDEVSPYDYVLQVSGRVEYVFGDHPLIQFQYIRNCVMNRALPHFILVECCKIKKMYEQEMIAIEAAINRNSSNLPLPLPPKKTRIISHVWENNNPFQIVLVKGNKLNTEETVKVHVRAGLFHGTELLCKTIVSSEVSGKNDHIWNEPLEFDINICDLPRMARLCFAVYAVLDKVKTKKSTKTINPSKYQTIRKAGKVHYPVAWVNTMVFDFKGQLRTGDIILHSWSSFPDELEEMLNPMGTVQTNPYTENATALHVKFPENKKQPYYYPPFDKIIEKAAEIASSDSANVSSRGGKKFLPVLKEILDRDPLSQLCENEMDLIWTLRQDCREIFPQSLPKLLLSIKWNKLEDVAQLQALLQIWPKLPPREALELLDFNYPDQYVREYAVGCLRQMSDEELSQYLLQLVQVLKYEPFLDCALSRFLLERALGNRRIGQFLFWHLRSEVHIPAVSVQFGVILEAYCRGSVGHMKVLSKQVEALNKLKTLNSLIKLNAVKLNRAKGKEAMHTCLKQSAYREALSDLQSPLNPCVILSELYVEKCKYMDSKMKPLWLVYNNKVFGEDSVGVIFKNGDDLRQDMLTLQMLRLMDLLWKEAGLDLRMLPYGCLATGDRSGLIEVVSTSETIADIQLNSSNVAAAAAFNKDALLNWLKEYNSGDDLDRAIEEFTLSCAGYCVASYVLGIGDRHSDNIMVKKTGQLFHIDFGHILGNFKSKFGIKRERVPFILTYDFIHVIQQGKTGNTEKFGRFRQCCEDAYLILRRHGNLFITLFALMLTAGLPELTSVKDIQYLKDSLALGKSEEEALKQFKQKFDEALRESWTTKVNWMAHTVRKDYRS
Chain of p110β/p85α (P27986 2-724 partner): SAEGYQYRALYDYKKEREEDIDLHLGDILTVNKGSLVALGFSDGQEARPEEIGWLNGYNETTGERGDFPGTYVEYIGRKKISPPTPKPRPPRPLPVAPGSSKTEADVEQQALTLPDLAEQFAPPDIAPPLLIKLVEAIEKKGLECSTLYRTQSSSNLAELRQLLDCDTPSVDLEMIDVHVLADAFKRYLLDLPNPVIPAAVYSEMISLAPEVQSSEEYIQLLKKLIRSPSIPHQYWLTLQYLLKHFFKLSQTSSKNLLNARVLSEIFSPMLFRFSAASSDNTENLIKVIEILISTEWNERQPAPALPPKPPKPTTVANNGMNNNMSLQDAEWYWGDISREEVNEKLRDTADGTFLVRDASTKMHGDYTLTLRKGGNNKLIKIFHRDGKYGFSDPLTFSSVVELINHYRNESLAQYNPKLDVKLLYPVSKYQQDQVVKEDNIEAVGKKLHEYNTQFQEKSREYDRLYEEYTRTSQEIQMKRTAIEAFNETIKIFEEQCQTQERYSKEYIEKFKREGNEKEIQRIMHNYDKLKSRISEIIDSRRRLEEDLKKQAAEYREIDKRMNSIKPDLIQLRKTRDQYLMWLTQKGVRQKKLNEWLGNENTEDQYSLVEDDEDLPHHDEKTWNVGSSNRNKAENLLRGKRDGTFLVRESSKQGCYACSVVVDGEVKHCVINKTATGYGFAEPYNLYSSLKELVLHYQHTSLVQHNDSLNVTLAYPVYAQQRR

SMILES	PI3Kβ IH % @ 1 uM (p110β/p85α)	PI3Kδ IH % @ 1 uM (p110δ/p85α)	IC50 (p110δ/p85α)	PI3Kγ IH % @ 1 uM (p110γ)	IC50 (p110γ)	IC50 (p110β/p85α)
C[S@+]([O-])c1c[nH]c2ncnc(N3CCC[C@H]3c3nn4ccc(Cl)c4c(=O)n3-c3ccccn3)c12 [Compound 388, 5-chloro-2-((S)-1-(5-((S)-methylsulfinyl)-7H-pyrrolo[2,3-d]pyrimidin-4-yl)pyrrolidin-2-yl)-3-(pyridin-2-yl)pyrrolo[2,1-f][1,2,4]triazin-4(3H)-one]	69.3%	96.2%	2 nM	80.7%	173 nM	
C[S@@+]([O-])c1c[nH]c2ncnc(N3CC[C@H]3c3nn4ccc(Cl)c4c(=O)n3-c3ccccn3)c12 [Compound 391, 5-chloro-2-((S)-1-(5-((R)-methylsulfinyl)-7H-pyrrolo[2,3-d]pyrimidin-4-yl)azetidin-2-yl)-3-(pyridin-2-yl)pyrrolo[2,1-f][1,2,4]triazin-4(3H)-one]	0.1%	91.4%	185 nM	90.5%	129 nM	
C[S@+]([O-])c1c[nH]c2ncnc(N3C[C@@H](F)C[C@H]3c3nn4ccc(Cl)c4c(=O)n3-c3cccc(F)c3)c12 [Compound 392, 5-chloro-2-((2S,4S)-4-fluoro-1-(5-((S)-methylsulfinyl)-7H-pyrrolo[2,3-d]pyrimidin-4-yl)pyrrolidin-2-yl)-3-(3-fluorophenyl)pyrrolo[2,1-f][1,2,4]triazin-4(3H)-one]	67.2%	95.9%	11 nM	89.1%	62 nM	
C[S@@+]([O-])c1c[nH]c2ncnc(N3C[C@@H](F)C[C@H]3c3nn4ccc(Cl)c4c(=O)n3-c3cccc(F)c3)c12 [Compound 393, 5-chloro-2-((2S,4S)-4-fluoro-1-(5-((R)-methylsulfinyl)-7H-pyrrolo[2,3-d]pyrimidin-4-yl)pyrrolidin-2-yl)-3-(3-fluorophenyl)pyrrolo[2,1-f][1,2,4]triazin-4(3H)-one]	35.2%	94.7%	9 nM	90.7%	9 nM	
C[S@+]([O-])c1c[nH]c2ncnc(N3CCC[C@H]3c3nn4ccc(F)c4c(=O)n3-c3ccccc3)c12 [Compound 396, 5-fluoro-2-((S)-1-(5-((S)-methylsulfinyl)-7H-pyrrolo[2,3-d]pyrimidin-4-yl)pyrrolidin-2-yl)-3-phenylpyrrolo[2,1-f][1,2,4]triazin-4(3H)-one]	86.1%	>100%	2 nM	94.1%	17 nM	369 nM
C[S@@+]([O-])c1c[nH]c2ncnc(N3CCC[C@H]3c3nn4ccc(F)c4c(=O)n3-c3ccccc3)c12 [Compound 397, 5-fluoro-2-((S)-1-(5-((R)-methylsulfinyl)-7H-pyrrolo[2,3-d]pyrimidin-4-yl)pyrrolidin-2-yl)-3-phenylpyrrolo[2,1-f][1,2,4]triazin-4(3H)-one]	52.0%	>100%	11 nM	96.5%	13 nM	2350 nM
CC(=O)c1c(C)nc(N)nc1N1CC[C@H]1c1nn2ccc(Cl)c2c(=O)n1-c1ccccc1 [Compound 398]	22.6%	99.1%	25 nM	>100%	18 nM	
C[S+]([O-])c1cnc(N)nc1N1CC[C@H]1c1nn2ccc(Cl)c2c(=O)n1-c1ccccc1 (some centres unmarked) [Compound 399]	3.5%	35.1%		70.3%		
O=C1C[C@@H](c2nn3ccc(F)c3c(=O)n2-c2ccccc2)N(c2ncnc3[nH]cnc23)C1 [Compound 400]	22.2%	>100%	12 nM	70.4%	81 nM	
N#Cc1cnc(N)nc1N1CC(=O)C[C@H]1c1nn2ccc(F)c2c(=O)n1-c1ccccc1 [Compound 401]	46.7%	>100%	4 nM	67.8%	189 nM	
CC(=O)c1c[nH]c2ncnc(N3CC(=O)C[C@H]3c3nn4ccc(Cl)c4c(=O)n3-c3ccccc3)c12 [Compound 402]	21.7%	93.4%	67 nM	65.8%		
N#Cc1cnc(N)nc1N1CC(=O)C[C@H]1c1nn2ccc(Cl)c2c(=O)n1-c1ccccc1 [Compound 403]	71.7%	98.1%	1 nM	93.1%	7 nM	123 nM
N#Cc1cnc(N)nc1N1CC(=O)C[C@H]1c1nn2ccc(Cl)c2c(=O)n1-c1cccc(F)c1 [Compound 404]	31.1%	93.7%	3 nM	95.6%	10 nM	
CC(=O)c1c[nH]c2ncnc(N[C@H](C)c3cn4ccc(F)c4c(=O)n3-c3ccccc3)c12 [Compound 405, (R)-3-(1-((5-acetyl-7H-pyrrolo[2,3-d]pyrimidin-4-yl)amino)ethyl)-8-fluoro-2-phenylpyrrolo[1,2-a]pyrazin-1(2H)-one]	86.5%	>100%	3 nM	92.3%	2 nM	332 nM
